Data: ChEMBL document CHEMBL1201862, “PubChem BioAssay data set” (2004)
Active and inactive are the calls of the source.

Assays:
[1] = off-target signal loss in HeLa-CEM21 co-culture – HeLa F-luc CTL cells, cherry-picked, counter-screen for HIV-1 Env fusion inhibitor project, dose response (AID 652040); format: functional, cell-based;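 further: potency for signal decrease marking cytotoxic or nonspecific inhibition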
[2] = inhibitors of HIV Env-driven cell fusion, dose response, cherry-pick (AID 652057); format: functional, cell-based
[3] = ZM109 Env clade C HIV-1 fusion inhibitors, dose response, HeLa effector, CEM target cells, luciferase, cherry-pick (AID 652058); format: functional, cell-based
[4] = inhibitors of clade B AD8 Env fusion, dose response, cell-based, cherry-pick (AID 652062); format: functional;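 further: luciferase signal from cell-cell fusion driven by HIV-1 clade B AD8 Env; potency is for inhibitors of fusion seen as a drop in luminescence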
[5] = biological target: T1, Fatty acid synthase (Homo sapiens, UniProt P49327); experiment: FAS thioesterase domain inhibitors, dose response, biochemical, kinetic fluorescence intensity (AID 624326); format: functional;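 further: rate of fluorescence rise from hydrolysis of a fluorogenic O-methyl fluorescein ester substrate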
[6] = biological target: T1, Fatty acid synthase; experiment: FAS thioesterase domain inhibitors, dose response, biochemical, endpoint fluorescence intensity, uHTS hits (AID 624327); format: functional;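 further: fluorescence from hydrolysis of an O-methyl fluorescein acyl ester substrate by the enzyme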
[7] = biological target: Heat shock protein HSP 90-alpha (Homo sapiens, UniProt P07900); format: functional, organism-based
[8] = biological target: T2, Small ubiquitin-related modifier 1 (Homo sapiens, UniProt P63165); experiment: inhibitors of SUMO1 partner interactions, dose response, biochemical, FRET (AID 624383); format: functional; details: read-out: IC50_Mean
[9] = biological target: T2, Small ubiquitin-related modifier 1; experiment: inhibitors of SUMO1 peptide binding, dose response, biochemical, fluorescence polarization, uHTS hits (AID 624382); format: functional; details: read-out: IC50_Mean
[10] = HEp-2 cell cytotoxicity, dose response, cytotoxicity control for RSV inhibitor project, HTS (AID 2410); format: functional; details: human respiratory syncytial virus
[11] = biological target: T3, Microphthalmia-associated transcription factor (Homo sapiens, UniProt O75030); experiment: TRPM1 promoter luciferase signal decrease, dose response, MITF inhibitor project, cell-based, SK-MEL-5, cherry-picked, set 3 (AID 493073); format: functional
T3 sequence (O75030 whole entry): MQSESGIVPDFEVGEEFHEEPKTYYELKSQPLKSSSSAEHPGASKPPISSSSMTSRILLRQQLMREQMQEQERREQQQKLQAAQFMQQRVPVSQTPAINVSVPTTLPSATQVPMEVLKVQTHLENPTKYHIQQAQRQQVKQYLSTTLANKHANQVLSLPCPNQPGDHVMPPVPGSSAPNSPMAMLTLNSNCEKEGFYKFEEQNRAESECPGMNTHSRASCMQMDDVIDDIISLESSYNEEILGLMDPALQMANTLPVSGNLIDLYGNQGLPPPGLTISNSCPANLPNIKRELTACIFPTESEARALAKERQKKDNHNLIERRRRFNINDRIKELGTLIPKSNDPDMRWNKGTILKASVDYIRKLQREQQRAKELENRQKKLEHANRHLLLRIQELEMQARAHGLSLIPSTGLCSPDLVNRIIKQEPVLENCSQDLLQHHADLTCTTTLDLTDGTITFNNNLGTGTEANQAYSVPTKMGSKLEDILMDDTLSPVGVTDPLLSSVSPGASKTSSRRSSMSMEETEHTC

[12] = test system: Vero; experiment: cells; format: functional, cell-based; details: Chlorocebus sabaeus
[13] = test system: Vero; experiment: cells; format: functional; details: Chlorocebus sabaeus
[14] = biological target: T4, Carboxy-terminal domain RNA polymerase II polypeptide A small phosphatase 1 (Homo sapiens, UniProt Q9GZU7); experiment: inhibitors of CTDSP1, concentration-response testing, biochemical assay, absorbance-based, actives from ultra-high-throughput screening (AID 540297); format: functional
T4 sequence (Q9GZU7 whole entry): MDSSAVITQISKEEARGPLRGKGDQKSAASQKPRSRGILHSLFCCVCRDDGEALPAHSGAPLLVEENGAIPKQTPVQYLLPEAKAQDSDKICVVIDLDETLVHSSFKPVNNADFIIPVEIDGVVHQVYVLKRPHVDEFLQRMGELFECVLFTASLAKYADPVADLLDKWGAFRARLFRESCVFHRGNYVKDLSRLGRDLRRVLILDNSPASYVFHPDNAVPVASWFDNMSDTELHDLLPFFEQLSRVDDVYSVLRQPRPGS

[15] = cells; format: functional, cell-based
[16] = cells; format: functional, cell-based; remark: listed apart in the source
[17] = cells; format: functional, cell-based; remark: listed apart in the source
[18] = cells; format: functional, cell-based; remark: listed apart in the source
[19] = biological target: Cytochrome P450 3A4 (Homo sapiens, UniProt P08684); details: Potency;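 further: confirmatory qHTS run detecting inhibitors and substrates of CYP3A4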
[20] = biological target: Large T antigen (Simian virus 40, UniProt P03070); format: functional, Betapolyomavirus macacae;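 further: Confirmatory-stage PubChem screen for compounds that inhibit SV40 T antigen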
[21] = biological target: Genome polyprotein (dengue virus type 2, UniProt P29990); experiment: Dengue-2 NS5 methyltransferase inhibitors, primary screen, biochemical, confirmation dose response (AID 588689); format: functional
Sequence of Genome polyprotein (P29990 2492-3391 limits assumed): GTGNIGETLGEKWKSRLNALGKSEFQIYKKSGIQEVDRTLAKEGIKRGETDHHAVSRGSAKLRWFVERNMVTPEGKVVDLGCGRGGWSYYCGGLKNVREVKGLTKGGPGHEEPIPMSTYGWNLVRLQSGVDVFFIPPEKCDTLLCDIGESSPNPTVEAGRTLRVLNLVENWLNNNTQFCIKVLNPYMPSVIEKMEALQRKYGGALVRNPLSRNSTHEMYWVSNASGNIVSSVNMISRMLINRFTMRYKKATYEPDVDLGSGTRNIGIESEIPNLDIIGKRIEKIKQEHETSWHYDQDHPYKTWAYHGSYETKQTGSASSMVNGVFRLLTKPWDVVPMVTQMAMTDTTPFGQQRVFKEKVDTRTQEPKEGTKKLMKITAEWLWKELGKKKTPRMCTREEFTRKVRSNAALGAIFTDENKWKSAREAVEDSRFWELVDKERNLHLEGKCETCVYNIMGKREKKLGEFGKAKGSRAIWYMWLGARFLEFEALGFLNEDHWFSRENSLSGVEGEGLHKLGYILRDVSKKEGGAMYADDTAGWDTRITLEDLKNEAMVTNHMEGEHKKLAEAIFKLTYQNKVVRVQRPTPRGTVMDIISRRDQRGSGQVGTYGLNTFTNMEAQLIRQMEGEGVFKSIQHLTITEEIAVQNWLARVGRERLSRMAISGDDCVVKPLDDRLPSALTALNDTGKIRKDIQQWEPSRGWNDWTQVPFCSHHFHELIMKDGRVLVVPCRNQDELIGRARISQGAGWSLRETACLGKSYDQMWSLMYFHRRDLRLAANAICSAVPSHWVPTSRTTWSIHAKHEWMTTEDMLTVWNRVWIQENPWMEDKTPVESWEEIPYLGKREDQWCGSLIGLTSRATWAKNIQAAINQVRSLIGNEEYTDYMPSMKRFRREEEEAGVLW

T2 sequence (P63165 whole entry): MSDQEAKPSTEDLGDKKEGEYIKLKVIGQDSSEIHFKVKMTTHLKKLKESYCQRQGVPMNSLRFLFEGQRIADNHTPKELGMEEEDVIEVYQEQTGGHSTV
T1 sequence (P49327 whole entry, the tested form may be a part): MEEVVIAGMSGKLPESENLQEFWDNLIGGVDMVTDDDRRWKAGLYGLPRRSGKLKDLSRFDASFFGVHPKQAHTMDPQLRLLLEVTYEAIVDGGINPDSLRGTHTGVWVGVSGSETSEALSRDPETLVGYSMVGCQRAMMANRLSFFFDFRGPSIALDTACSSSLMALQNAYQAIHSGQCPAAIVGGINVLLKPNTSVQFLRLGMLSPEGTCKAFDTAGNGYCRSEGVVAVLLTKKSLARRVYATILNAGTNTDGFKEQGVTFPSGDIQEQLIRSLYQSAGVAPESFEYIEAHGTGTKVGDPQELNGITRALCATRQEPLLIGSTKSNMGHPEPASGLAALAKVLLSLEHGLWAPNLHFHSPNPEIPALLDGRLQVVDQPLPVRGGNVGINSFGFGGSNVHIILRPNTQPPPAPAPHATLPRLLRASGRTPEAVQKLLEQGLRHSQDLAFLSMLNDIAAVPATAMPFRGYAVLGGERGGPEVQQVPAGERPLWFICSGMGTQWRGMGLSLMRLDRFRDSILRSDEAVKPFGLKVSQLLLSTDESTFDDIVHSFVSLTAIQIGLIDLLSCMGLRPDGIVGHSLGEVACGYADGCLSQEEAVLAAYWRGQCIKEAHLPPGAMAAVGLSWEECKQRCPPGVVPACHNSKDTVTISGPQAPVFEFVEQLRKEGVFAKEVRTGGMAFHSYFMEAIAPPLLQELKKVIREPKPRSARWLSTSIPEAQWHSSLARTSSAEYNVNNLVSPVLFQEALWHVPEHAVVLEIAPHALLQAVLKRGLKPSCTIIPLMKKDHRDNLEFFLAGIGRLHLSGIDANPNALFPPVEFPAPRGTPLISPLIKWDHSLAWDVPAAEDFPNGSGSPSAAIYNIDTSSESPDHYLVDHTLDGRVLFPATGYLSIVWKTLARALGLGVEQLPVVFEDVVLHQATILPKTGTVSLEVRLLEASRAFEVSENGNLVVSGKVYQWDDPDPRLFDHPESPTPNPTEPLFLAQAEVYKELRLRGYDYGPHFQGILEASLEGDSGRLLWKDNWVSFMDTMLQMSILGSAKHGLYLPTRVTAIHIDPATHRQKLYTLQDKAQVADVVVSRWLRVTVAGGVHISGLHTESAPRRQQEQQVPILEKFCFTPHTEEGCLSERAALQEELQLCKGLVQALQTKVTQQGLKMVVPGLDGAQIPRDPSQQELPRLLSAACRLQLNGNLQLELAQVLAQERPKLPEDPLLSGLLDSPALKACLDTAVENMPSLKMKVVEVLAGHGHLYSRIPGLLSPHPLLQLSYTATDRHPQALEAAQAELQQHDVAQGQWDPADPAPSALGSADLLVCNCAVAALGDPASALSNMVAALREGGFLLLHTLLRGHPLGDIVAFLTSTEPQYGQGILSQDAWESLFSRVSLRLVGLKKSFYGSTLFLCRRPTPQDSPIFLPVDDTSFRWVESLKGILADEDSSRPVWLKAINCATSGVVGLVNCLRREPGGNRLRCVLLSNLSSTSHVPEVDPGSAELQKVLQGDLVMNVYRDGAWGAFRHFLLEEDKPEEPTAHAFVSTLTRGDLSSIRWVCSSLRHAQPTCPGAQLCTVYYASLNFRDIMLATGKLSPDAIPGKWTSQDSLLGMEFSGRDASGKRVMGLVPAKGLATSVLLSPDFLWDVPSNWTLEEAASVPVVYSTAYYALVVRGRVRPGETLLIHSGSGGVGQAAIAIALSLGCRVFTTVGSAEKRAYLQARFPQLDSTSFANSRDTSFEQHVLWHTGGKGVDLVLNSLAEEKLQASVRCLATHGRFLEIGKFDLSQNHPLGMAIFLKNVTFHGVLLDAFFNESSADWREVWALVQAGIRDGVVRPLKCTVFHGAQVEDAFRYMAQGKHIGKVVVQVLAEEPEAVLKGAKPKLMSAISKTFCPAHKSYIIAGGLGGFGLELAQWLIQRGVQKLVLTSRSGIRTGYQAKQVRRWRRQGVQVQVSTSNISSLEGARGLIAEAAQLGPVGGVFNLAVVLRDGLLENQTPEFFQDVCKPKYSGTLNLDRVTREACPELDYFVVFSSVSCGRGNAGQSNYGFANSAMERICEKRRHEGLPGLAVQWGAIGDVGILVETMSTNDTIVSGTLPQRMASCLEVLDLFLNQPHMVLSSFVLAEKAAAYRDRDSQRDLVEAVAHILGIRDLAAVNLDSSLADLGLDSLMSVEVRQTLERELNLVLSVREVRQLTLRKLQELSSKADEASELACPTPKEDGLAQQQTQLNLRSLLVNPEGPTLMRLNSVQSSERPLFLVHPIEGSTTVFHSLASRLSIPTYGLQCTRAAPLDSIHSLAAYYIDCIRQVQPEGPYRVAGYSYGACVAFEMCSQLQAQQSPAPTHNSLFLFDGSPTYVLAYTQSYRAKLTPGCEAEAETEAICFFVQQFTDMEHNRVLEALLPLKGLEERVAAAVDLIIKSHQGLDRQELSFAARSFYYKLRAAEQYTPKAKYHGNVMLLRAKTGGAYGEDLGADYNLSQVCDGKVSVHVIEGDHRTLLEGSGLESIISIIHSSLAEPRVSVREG
Sequence of Cytochrome P450 3A4 (P08684 whole entry): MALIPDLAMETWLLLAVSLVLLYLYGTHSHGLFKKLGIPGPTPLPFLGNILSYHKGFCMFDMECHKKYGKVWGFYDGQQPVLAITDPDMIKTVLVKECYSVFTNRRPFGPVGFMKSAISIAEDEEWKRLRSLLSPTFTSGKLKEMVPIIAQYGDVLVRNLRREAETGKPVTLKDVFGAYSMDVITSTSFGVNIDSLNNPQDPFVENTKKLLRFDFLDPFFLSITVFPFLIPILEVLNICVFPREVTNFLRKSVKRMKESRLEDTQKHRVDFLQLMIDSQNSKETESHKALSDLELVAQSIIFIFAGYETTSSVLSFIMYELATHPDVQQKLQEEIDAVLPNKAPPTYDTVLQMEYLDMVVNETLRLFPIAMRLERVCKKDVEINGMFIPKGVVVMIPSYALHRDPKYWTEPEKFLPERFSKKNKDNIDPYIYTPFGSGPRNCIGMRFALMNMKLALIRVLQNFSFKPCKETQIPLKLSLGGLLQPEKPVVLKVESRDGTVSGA
Sequence of Large T antigen (P03070 whole entry): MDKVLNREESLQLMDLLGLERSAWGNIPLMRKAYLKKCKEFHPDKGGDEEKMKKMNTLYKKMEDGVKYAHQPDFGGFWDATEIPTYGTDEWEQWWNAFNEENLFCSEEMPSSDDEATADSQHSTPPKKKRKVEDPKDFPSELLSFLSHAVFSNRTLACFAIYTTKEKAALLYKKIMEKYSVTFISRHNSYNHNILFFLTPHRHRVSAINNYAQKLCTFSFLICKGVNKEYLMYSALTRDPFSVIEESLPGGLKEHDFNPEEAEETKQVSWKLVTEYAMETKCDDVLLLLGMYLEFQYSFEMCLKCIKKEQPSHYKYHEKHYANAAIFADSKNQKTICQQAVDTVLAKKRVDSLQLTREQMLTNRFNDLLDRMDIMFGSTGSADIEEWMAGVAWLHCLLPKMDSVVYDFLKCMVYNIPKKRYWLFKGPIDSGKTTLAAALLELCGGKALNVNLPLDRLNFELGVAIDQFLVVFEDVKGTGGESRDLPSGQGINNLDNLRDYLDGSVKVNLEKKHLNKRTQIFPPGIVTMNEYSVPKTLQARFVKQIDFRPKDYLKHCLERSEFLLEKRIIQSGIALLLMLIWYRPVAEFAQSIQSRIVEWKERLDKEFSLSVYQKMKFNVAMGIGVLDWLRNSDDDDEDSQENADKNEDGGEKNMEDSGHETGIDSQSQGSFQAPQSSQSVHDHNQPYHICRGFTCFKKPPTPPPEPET

COc1cc(OC)cc(C(=O)N[C@H](C(=O)NCCc2c[nH]c3ccccc23)C(C)C)c1
AC50 [1]: 35.6 µM (active)
AC50 [2]: 11 µM (active)
AC50 [3]: 16.8 µM (active)

CC(=O)Nc1sc2c(c1C(c1ccc(F)cc1)N1CCOCC1)CCCC2 (stereo unspecified)
AC50 [4]: 32.8 µM (active)
AC50 [1]: > 70 µM (inactive)
AC50 [2]: 5.3 µM (active)
AC50 [3]: 11.6 µM (active)

CC(C)OC(=O)[C@H]1[C@H](c2ccc(Cl)cc2)[C@@](C#N)(C(N)=O)[C@@H]2C=CC(C(N)=O)=CN21
IC50 [5]: 7.56 µM (active)
IC50 [6]: 10.9 µM (active)

Oc1ccc(-c2nc3ccc4ccccc4c3c3c2CCC3)cc1O
AC50 [7]: 6.97 µM (active)

CCC(CO)Oc1cc(NC(=O)c2ccccc2C)c2ncn(C(C)C)c2c1 (stereo unspecified)
IC50 [8]: 17.6 µM (active)
IC50 [9]: > 66.6 µM (inactive)

O=C1CC(C(=O)N(CC2CCCO2)C(C(=O)NC2CCCCC2)c2ccncc2)CS1 (stereo unspecified)
AC50 [4]: 37.8 µM (active)
AC50 [1]: 30.2 µM (active)
AC50 [2]: 7.23 µM (active)
AC50 [3]: 6.85 µM (active)

Cc1ccc(Cl)cc1Nc1nc(-c2sc(NC(=O)C(C)(C)C)nc2C)cs1
IC50 [8]: 9.1 µM (active)
IC50 [9]: > 66.6 µM (inactive)
CC50 [10]: 21.4 µM (active)

CCN(CC)S(=O)(=O)c1ccc(N2CCCC2)c(NC(=O)c2ccc([N+](=O)[O-])o2)c1
AC50 [11]: 3.18 µM (active)
IC50 [12]: > 25 µM (active)
CC50 [13]: 17.8 µM (active)

O=C(C[C@H]1C[C@H](C(=O)N2CCOCC2)[C@@]2(CCC3CCCC3)c3[nH]c4cc(-c5ccco5)ccc4c3CCN2C1=O)NCCN1CCOCC1
IC50 [5]: 3.76 µM (active)
IC50 [6]: 6.62 µM (active)

COc1ccc(OC)c(NC(=O)CSc2ncnc3sc(C)cc23)c1
IC50 [14]: 5.46 µM (active)

CC(CNC(=O)C1CCCCC1C(=O)O)c1ccccc1 (stereo unspecified)
EC50 [15]: > 29.9 µM (inactive)
IC50 [16]: > 29.9 µM (inactive)

CCCCCCCCCCCCCC(=O)NO
AC50 [7]: 2.71 µM (active)

COc1cccc(/C=N/NC(=O)CSc2ccccc2C)c1O
EC50 [17]: 30.4 µM (active)
EC50 [18]: 52.4 µM (active)

O=C(NCCN1CCC(n2c(O)nc3ccccc32)CC1)c1cccc2c1-c1ccccc1C2=O
IC50 [8]: 17.9 µM (active)
IC50 [9]: > 66.6 µM (inactive)

CCc1nc2c(OCc3ccc(Cl)cc3)cccn2c1N(C=O)Cc1ccc(OC)cc1
IC50 [5]: 9.84 µM (active)
IC50 [6]: 8.01 µM (active)

CCCCCCN(C(=O)CCCCCN1C(=O)NC(c2ccc(-c3ccccc3)cc2)C(C(=O)OCc2ccccc2)=C1C)C(C(=O)NCCCC)c1ccccc1 (stereo unspecified)
AC50 [19]: 2 µM (inconclusive)

CC(=O)c1ccc(N2/C(=N/C(=O)COc3ccccc3)SC3CS(=O)(=O)CC32)cc1 (stereo unspecified)
EC50 [17]: > 350 µM (not active)
EC50 [18]: > 350 µM (not active)

O=C(N/N=C(\c1ccccc1)c1cccnc1)c1cc(O)ccc1O
IC50 [20]: 6.14 µM (active)

N#Cc1c(N)sc(=S)c2c1CCCCC2
IC50 [21]: > 100 µM (active)
IC50 [20]: 46.4 µM (active)

Nc1ccc(-c2ccc(N)c(O)c2)cc1O
AC50 [19]: 31.6 µM (inconclusive)
